Test results from patent US20240325359A1, “ACAT1 INHIBITOR AND METHOD OF USE IN THE TREATMENT OF DISEASE” (Trustees of Dartmouth College, priority 2023, published 2024).

Key:
[1] = target: T1, human ACAT1 (Homo sapiens, UniProt P35610); experiment: Cholesteryl [3H]-oleate formation in CHO cells stably expressing human ACAT1
T1 sequence (P35610 1-550): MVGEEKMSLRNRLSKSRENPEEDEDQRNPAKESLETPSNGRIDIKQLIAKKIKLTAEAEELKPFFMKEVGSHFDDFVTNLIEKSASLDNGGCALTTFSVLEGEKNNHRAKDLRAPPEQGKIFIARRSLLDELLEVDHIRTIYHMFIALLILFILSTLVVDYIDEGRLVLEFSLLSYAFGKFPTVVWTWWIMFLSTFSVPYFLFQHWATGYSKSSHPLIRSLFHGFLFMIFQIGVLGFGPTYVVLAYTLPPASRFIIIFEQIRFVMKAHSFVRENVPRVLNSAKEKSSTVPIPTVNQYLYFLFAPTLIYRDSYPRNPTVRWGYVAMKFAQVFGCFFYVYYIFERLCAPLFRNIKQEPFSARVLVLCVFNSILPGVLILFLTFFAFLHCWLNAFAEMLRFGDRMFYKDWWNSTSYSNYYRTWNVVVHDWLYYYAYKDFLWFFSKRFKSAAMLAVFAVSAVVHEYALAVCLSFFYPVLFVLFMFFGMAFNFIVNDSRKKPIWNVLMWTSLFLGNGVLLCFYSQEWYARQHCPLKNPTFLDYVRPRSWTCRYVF
Protocol: (§1) Cells were placed in 10% serum for two days at 37° C. and further incubated with various concentrations of F24 as a stock solution in DMSO for 2 hours. Subsequently, a complex of [3H]-oleic acid and BSA (serving as precursor of oleyl CoA as substrate of ACAT) was fed to the cells for 2 hours. Cells were extensively washed and cellular lipids were extracted with organic solvents. Radioactivity of cholesteryl [3H]-oleate was separated by thin-layer chromatography and determined by scintillation counting.

[2] = target: T2, human ACAT2 (Homo sapiens, UniProt O75908); experiment: Cholesteryl [3H]-oleate formation in CHO cells stably expressing human ACAT2
T2 sequence (O75908 1-522): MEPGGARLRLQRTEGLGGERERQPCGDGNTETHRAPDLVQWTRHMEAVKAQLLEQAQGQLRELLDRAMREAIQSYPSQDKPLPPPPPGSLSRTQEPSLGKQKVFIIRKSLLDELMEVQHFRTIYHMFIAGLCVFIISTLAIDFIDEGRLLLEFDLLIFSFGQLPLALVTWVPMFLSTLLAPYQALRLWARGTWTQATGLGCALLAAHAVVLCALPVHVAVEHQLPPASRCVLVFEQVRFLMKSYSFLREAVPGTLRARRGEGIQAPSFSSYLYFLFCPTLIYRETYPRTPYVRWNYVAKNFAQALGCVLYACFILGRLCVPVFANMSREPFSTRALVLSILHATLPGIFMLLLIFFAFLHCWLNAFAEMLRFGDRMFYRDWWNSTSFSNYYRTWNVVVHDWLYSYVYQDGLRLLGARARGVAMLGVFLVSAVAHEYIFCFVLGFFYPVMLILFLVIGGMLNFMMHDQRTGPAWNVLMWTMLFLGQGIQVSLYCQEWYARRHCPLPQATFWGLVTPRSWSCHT
Protocol: as §1

[3] = test system: ACAT activity in the brain; experiment: ACAT inhibition in mouse tissues after single IV of stealth nanoparticles; format: in vivo, mice
Protocol: Shown is the efficacy of F12511 vs. F24 encapsulated in nanoparticle and IV delivered to mice. Four hours after IV, various tissues were isolated to monitor ACAT inhibition measurement. Mice were perfused before brains were isolated. N=2-3 WT mice/group. Statistical analysis, 2-way ANOVA. **P<0.01; ***P<0.001.
Nanoparticle Formation. Nanoparticles were prepared according to a general method (Gülçür, et al. (2013) Drug Deliv. Transl. Res. 3(6):562-574; Jhaveri & Torchilin (2014) Front. Pharmacol. 5:77) with modifications. Using a clean glass tube (9 mL capacity), 60 mg of DSPE-PEG2000 (Laysan Bio, Inc (mPEG-DSPE, MW 2,000)) was dissolved in 500 μL of ethanol (EtOH) for a working concentration of 60 mM. […]
Nanoparticle Analysis. […] The content of compound was determined by extrapolation from a standard curve of a concentration gradient of the respective compound produced in the same TLC plate. The plate was stained with iodine and quantified using ImageJ. The TLC/iodine stain method detected compound, and DSPE-PEG2000/PC separately, thus allowing for encapsulation efficiency determination.
Delivery of F24 in Mice via Nanoparticles. […] Four hours after IV delivery, different tissues were isolated and the percent of ACAT inhibition was assessed.

EC50 [1] [nM] | fold more potent than F12511 in inhibiting ACAT1 ([1]; ratio of EC50 values, 6 nM vs. 39 nM) | EC50 [2] [nM] | fold more potent than F12511 in inhibiting human ACAT2 ([2]; ratio of EC50 values, 11 nM vs. 55 nM) | brain permeability ([3]; mice, delivered IV via stealth nanoparticle) | Structure (SMILES) | ACAT inhibition ([3]; adult C57BL/6 mice, single IV of nanoparticle F24 at low dose 0.9 mM, four hours after IV, brain) [%]
6 | seven-fold | 11 | five-fold | brain-permeable | CCCCCCCCCCCCSC(C(=O)Nc1c(SC)cc(C)nc1SC)c1ccccc1 (stereo not shown) [F24] | 70
– | – | 55 | – | – | CCCCCCCCCCCCS[C@H](C(=O)Nc1cc(C)c(O)c(C)c1C)c1ccccc1 [F12511, reference compound] | –
